Test results: patent US12648903B2, “Skin care composition” (BEIERSDORF AG, priority 2019, dated 2026)

Experiments:
[1] = system: C. acnes strain C3; assay: Minimum inhibitory concentration (MIC) of cosmetic excipients, strain C3; assay type: cell-based, Cutibacterium acnes; conditions: % w/vol, incubated anaerobically 3 days at 37° C., growth scored visually
Method: (§1) In microbiology, the MIC is the lowest concentration of a chemical which prevents visible growth of bacterium. The resulted MIC value depends both on the microorganism and the test compound. The MIC is determined by preparing concentrations series of the test compound in vitro, incubating the solutions with the separate batches of cultured bacteria, and measuring the results using agar dilution or broth microdilution. For the experiments with C. acnes strains C3 and K8, media comprising yeast extract soy peptone and dextrose were used. The MIC is determined by turbidity.
(§2) A total of 125 cosmetic excipients were tested for their compatibility with C. acnes strains C3 and K8. Hydrophilic compounds were tested in a 96-well plate liquid broth format, poorly soluble compounds were pre-dissolved in DMSO before dilution in liquid broth and hydrophobic or solid compounds were tested in an agar well diffusion test assay. The different dilutions of the test excipients in media were prepared in Falcon tubes and then distributed in a deep well plate using a multistepper. Each well received 1.2 ml and was subsequently inoculated with 120 μl of C. acnes bacteria suspension (strain C3 and K8). From the deep well plate 200 μl were transferred in each well of a clear 96 well replicate plate. The leftover was discarded. The plates were then incubated anaerobically for 3 days at 37° C. Following incubation, the test plates were visually examined and wells were scored for growth or complete growth inhibition to define the minimum inhibitory concentration.
(§3) These excipients are listed in the below table with their compatibility values for C. acnes strains C3 and K8. The compatibility values represent the MIC value of the listed ingredients with the tested C. acnes strains. At this concentration [% w/vol] the tested compound starts interfering with the growth of the tested strains. The compounds can be used in formulations at concentrations below this concentration.

[2] = system: C. acnes strain K8; assay: Minimum inhibitory concentration (MIC) of cosmetic excipients, strain K8; assay type: cell-based, Cutibacterium acnes; conditions: % w/vol, incubated anaerobically 3 days at 37° C., growth scored visually
Method: as §1, §2, §3

Compound | COMPATABILITY VALUE C3 [%] (MIC value) [1] | COMPATABILITY VALUE K8 [%] (MIC value) [2]
CCCCCCC(O)CO (centres unmarked) [caprylyl glycol] | 0.18 | 0.18
CC(CO)CO [methylpropanediol] | 4.00 | 4.00
ethylhexyl cocoate | 10.00 | 10.00
tocopherol | 1.50 | 1.50
